Measured values reported in US10039283B2, “Substituted pyrazolyl-nicotin(thio)amide derivatives and their use as fungicides” (BAYER CROPSCIENCE AKTIENGESELLSCHAFT, priority 2014, dated 2018).

Test: Log P by HPLC on reversed phase, method [a], acidic range (0.1% formic acid)
Assay type: physicochemical
Conditions: LC-UV, 0.1% formic acid in water and acetonitrile

| Structure (SMILES) | LogP |
| --- | --- |
| CCC(CC)n1ncc(NC(=O)c2cc(C)cnc2C(F)F)c1C [Example 38] | 2.12^[a] |
| O=C(Nc1cnn(-c2cccc(C(F)(F)F)c2)c1C(F)(F)F)c1cccnc1C(F)F [Example 85] | 3.19^[a] |
| Cc1cnc(C(F)F)c(C(=O)Nc2cnn(-c3ccc(C(C)C)cc3)c2C(F)(F)F)c1 [Example 142] | 3.78^[a] |
| CCc1c(NC(=O)c2cccnc2C(F)F)cnn1C(CC)CC [Example 127] | 2.20^[a] |
| O=C(Nc1cnn(-c2ccc(Cl)c(Cl)c2)c1C(F)(F)F)c1cccnc1C(F)F [Example 96] | 3.51^[a] |
| Cc1ncccc1C(=O)Nc1cnn(-c2ccc(Br)cc2)c1C(F)(F)F [Example 249] | 2.28^[a] |
| CCc1c(NC(=O)c2cccnc2C(F)F)cnn1-c1ccccc1C [Example 104] | 2.18^[a] |
| Cc1ncccc1C(=O)Nc1cnn(-c2ccc(Cl)cc2)c1C(F)(F)F [Example 237] | 2.12^[a] |
| CCOc1ccc(-n2ncc(NC(=O)c3cccnc3C(F)F)c2C(F)(F)F)cc1 [Example 230] | 2.88^[a] |
| Cc1cccc(-n2ncc(NC(=O)c3cccnc3C(F)F)c2C(C)C)c1 [Example 116] | 2.50^[a] |
| CC(C)Oc1c(NC(=O)c2cccnc2C(F)F)cnn1-c1ccc(Cl)cc1 [Example 226] | 2.86^[a] |
| O=C(Nc1cnn(-c2ccc(Cl)cc2)c1SC(F)(F)F)c1cccnc1C(F)F [Example 224] | 3.25^[a] |
| O=C(Nc1cnn(-c2ccccc2Cl)c1-c1ccccc1)c1cccnc1C(F)F [Example 79] | 2.53^[a] |
| COCc1c(NC(=O)c2cccnc2C(F)F)cnn1-c1ccc(Br)cc1 [Example 251] | 2.58^[a] |
| Cc1cccc(-n2ncc(NC(=O)c3ccc(Cl)nc3C(F)F)c2C)c1 [Example 68] | 2.73^[a] |
| N#Cc1c(NC(=O)c2ccc(Cl)nc2C(F)F)cnn1-c1ccccc1 [Example 164] | 2.90^[a] |
| O=C(Nc1cnn(-c2ccc(C(F)(F)F)cc2)c1-c1cccc(Cl)c1)c1cccnc1C(F)F [Example 55] | 3.58^[a] |
| Cc1c(NC(=O)c2cccnc2C(F)F)cnn1C1CCCC1 [Example 11] | 1.83^[a] |
| O=C(Nc1cnn(-c2cc(Cl)ccc2Cl)c1C(F)(F)F)c1ccc(Cl)nc1C(F)F [Example 176] | 3.76^[a] |
| O=C(Nc1cnn(-c2ccc(Cl)cc2)c1OCC(F)F)c1cccnc1C(F)F [Example 222] | 2.60^[a] |
| CCc1c(NC(=O)c2cccnc2C(F)F)cnn1-c1cccc(Cl)c1 [Example 107] | 2.48^[a] |
| Cc1cccc(-n2ncc(NC(=O)c3cc(C)cnc3C(F)F)c2C)c1 [Example 67] | 2.35^[a] |
| O=C(Nc1cnn(-c2cccc(Cl)c2)c1C(F)F)c1cccnc1C(F)F [Example 24] | 2.69^[a] |
| CCc1c(NC(=O)c2cccnc2C(F)F)cnn1-c1ccc(C)cc1 [Example 99] | 2.34^[a] |
| Cc1ccc(-n2ncc(NC(=O)c3cccnc3C(F)F)c2C(C)C)cc1 [Example 108] | 2.48^[a] |
| CCCOc1c(NC(=O)c2cccnc2C(F)F)cnn1-c1ccc(Cl)cc1 [Example 227] | 2.95^[a] |

| Structure (SMILES) | LogP |
| --- | --- |
| Cc1c(NC(=O)c2cccnc2C(F)F)cnn1-c1ccccc1 [Example 12] | 1.78^[a] |
| O=C(Nc1cnn(-c2ccc(OC(F)(F)C(F)F)cc2)c1C(F)(F)F)c1cccnc1C(F)F [Example 247] | 3.19^[a] |
| CC(C)c1cccc(-n2ncc(NC(=O)c3cccnc3C(F)F)c2C(F)(F)F)c1 [Example 3] | 3.51^[a] |
| O=C(Nc1cnn(-c2ccc(SC(F)(F)F)cc2)c1C(F)(F)F)c1cccnc1C(F)F [Example 243] | 3.68^[a] |
| Cc1cccc(-n2ncc(NC(=O)c3cc(C)cnc3C(F)F)c2C(C)C)c1 [Example 238] | 2.75^[a] |
| Cc1cnc(C(F)F)c(C(=O)Nc2cnn(-c3cccc(Cl)c3Cl)c2C(F)(F)F)c1 [Example 167] | 3.35^[a] |
| CCc1c(NC(=O)c2cc(C)cnc2C(F)F)cnn1-c1ccc(C(F)(F)F)cc1 [Example 240] | 3.00^[a] |
| Cc1cnc(C(F)F)c(C(=O)Nc2cnn(-c3ccc(Cl)c(Cl)c3)c2C(F)(F)F)c1 [Example 179] | 3.76^[a] |
| CC(C)c1c(NC(=O)c2cccnc2C(F)F)cnn1-c1cccc(Cl)c1 [Example 103] | 2.60^[a] |
| O=C(Nc1cnn(-c2ccc(Cl)cc2)c1C(F)F)c1cccnc1C(F)F [Example 23] | 2.69^[a] |
| O=C(Nc1cnn(-c2cccc(C(F)F)c2)c1C(F)(F)F)c1cccnc1C(F)F [Example 64] | 2.71^[a] |
| CC(C)c1ccc(-n2ncc(NC(=O)c3cccnc3C(F)F)c2C(F)(F)F)cc1 [Example 90] | 3.55^[a] |
| O=C(Nc1cnn(-c2cccc(C(F)(F)F)c2)c1C(F)F)c1cccnc1C(F)F [Example 30] | 2.88^[a] |
| Cc1cnc(C(F)F)c(C(=O)Nc2cnn(Cc3ccccc3)c2C(F)(F)F)c1 [Example 170] | 2.95^[a] |
| COc1cnc(C(F)F)c(C(=O)Nc2cnn(-c3cc(Cl)ccc3Cl)c2C(F)(F)F)c1 [Example 177] | 3.39^[a] |
| CC(C)c1c(NC(=O)c2cccnc2C(F)F)cnn1-c1ccccc1Cl [Example 109] | 2.35^[a] |
| O=C(Nc1cnn(-c2ccc(Br)cc2)c1C(F)(F)F)c1cccnc1CF [Example 248] | 2.80^[a] |
| COc1c(NC(=O)c2cccnc2C(F)F)cnn1-c1ccc(C(F)(F)F)cc1 [Example 219] | 2.63^[a] |
| COc1c(NC(=O)c2cccnc2C(F)F)cnn1-c1cc(Cl)cc(Cl)c1 [Example 216] | 3.02^[a] |
| O=C(Nc1cnn(-c2ccc(Cl)cc2)c1-c1cccc(F)c1)c1cccnc1C(F)F [Example 197] | 3.07^[a] |
| Cc1cnc(C(F)F)c(C(=O)Nc2cnn(-c3cccc(Cl)c3)c2C)c1 [Example 65] | 2.51^[a] |
| O=C(Nc1cnn(-c2ccc(Br)cc2)c1-c1cccc(Cl)c1)c1cccnc1C(F)F [Example 199] | 3.46^[a] |
| Cc1cnc(C(F)F)c(C(=O)Nc2cnn(-c3ccccc3)c2C(F)(F)F)c1 [Example 4] | 2.44^[a] |
| O=C(Nc1cnn(-c2ccc(Cl)cc2)c1-c1cccc(Cl)c1)c1cccnc1C(F)F [Example 56] | 3.35^[a] |
| CCc1ccc(-n2ncc(NC(=O)c3cccnc3C(F)F)c2C(F)(F)F)cc1 [Example 255] | 3.19^[a] |
| O=C(Nc1cnn(-c2ccc(Br)cc2)c1-c1ccccc1)c1cccnc1C(F)F [Example 196] | 3.10^[a] |

The remaining lines, values ahead:

| LogP | Structure (SMILES) |
| --- | --- |
| 3.39^[a] | Cc1cnc(C(F)F)c(C(=O)Nc2cnn(-c3cccc(C(F)(F)F)c3)c2C(F)(F)F)c1 [Example 139] |
| 3.06^[a] | O=C(Nc1cnn(-c2ccc(Cl)c(Cl)c2)c1Cl)c1cccnc1C(F)F [Example 252] |
| 2.39^[a] | O=C(Nc1cnn(-c2ccccc2F)c1-c1ccccc1)c1cccnc1C(F)F [Example 148] |
| 2.11^[a] | Cc1cccc(-n2ncc(NC(=O)c3cccnc3C(F)F)c2C)c1 [Example 48] |
| 2.32^[a] | COc1c(NC(=O)c2cccnc2C(F)F)cnn1-c1ccc(Cl)cc1 [Example 218] |
| 2.73^[a] | O=C(Nc1cnn(-c2ccccc2F)c1-c1ccc(Cl)cc1)c1cccnc1C(F)F [Example 149] |
| 2.25^[a] | Cc1c(NC(=O)c2cccnc2C(F)F)cnn1-c1ccc(Cl)cc1 [Example 46] |
| 1.63^[a] | Cc1c(NC(=O)c2cccnc2C(F)F)cnn1C(C)(C)C [Example 6] |
| 2.59^[a] | Cc1cnc(C(F)F)c(C(=O)Nc2cnn(-c3ccccc3Cl)c2C(C)C)c1 [Example 209] |
| 2.71^[a] | Cc1ccccc1-n1ncc(NC(=O)c2cccnc2C(F)F)c1C(F)(F)F [Example 73] |
| 3.29^[a] | COc1cnc(C(F)F)c(C(=O)Nc2cnn(-c3ccc(Cl)cc3)c2C(F)(F)F)c1 [Example 169] |
| 2.08^[a] | Cc1nn(-c2ccccc2)c(Cl)c1NC(=O)c1cccnc1C(F)F [Example 75] |
| 2.33^[a] | CC(C)n1ncc(NC(=O)c2ccc(Cl)nc2C(F)F)c1C1CC1 [Example 43] |
| 2.71^[a] | O=C(Nc1cnn(-c2ccccc2Br)c1C(F)(F)F)c1cccnc1C(F)F [Example 74] |
| 3.96^[a] | O=C(Nc1cnn(-c2ccc(Cl)cc2Cl)c1C(F)(F)F)c1ccc(Br)nc1C(F)F [Example 172] |
| 2.48^[a] | O=C(Nc1cnn(-c2cccc(C(F)F)c2)c1C(F)F)c1cccnc1C(F)F [Example 26] |
| 2.71^[a] | O=C(Nc1cnn(Cc2ccccc2)c1C(F)(F)F)c1cccnc1C(F)F [Example 97] |
| 2.53^[a] | Cc1c(NC(=O)c2cccnc2C(F)F)cnn1-c1ccc(C(F)(F)F)cc1 [Example 114] |
| 3.76^[a] | COc1cnc(C(F)F)c(C(=O)Nc2cnn(-c3ccc(Cl)c(Cl)c3)c2C(F)(F)F)c1 [Example 136] |
| 2.25^[a] | Cc1ccc(C)c(-n2ncc(NC(=O)c3cccnc3C(F)F)c2C)c1 [Example 13] |
| 3.31^[a] | O=C(Nc1cnn(-c2cccc(Cl)c2)c1-c1cccc(Cl)c1)c1cccnc1C(F)F [Example 54] |
| 2.54^[a] | O=C(Nc1cnn(-c2cccc(Cl)c2)c1Br)c1cccnc1C(F)F [Example 153] |
| 2.88^[a] | O=C(Nc1cnn(-c2ccccc2Cl)c1-c1cccc(Cl)c1)c1cccnc1C(F)F [Example 81] |
| 3.15^[a] | O=C(Nc1cnn(-c2ccccc2F)c1C(F)(F)F)c1ccc(Cl)nc1C(F)F [Example 158] |
| 2.90^[a] | O=C(Nc1cnn(-c2ccccc2Cl)c1-c1ccc(Cl)cc1)c1cccnc1C(F)F [Example 80] |
| 4.23^[a] | O=C(Nc1cnn(-c2cc(Cl)cc(Cl)c2)c1C(F)(F)F)c1ccc(Cl)nc1C(F)F [Example 161] |
| 3.89^[a] | Cc1cnc(C(F)F)c(C(=O)Nc2cnn(-c3cc(Cl)cc(Cl)c3)c2C(F)(F)F)c1 [Example 174] |
| 2.88^[a] | Cc1c(NC(=O)c2ccc(Cl)nc2C(F)F)cnn1-c1cccc(Cl)c1 [Example 66] |
| 3.11^[a] | O=C(Nc1cnn(-c2cccc(Cl)c2Cl)c1C(F)(F)F)c1cccnc1C(F)F [Example 94] |
| 2.73^[a] | CCc1c(NC(=O)c2cc(C)cnc2C(F)F)cnn1-c1ccc(Cl)cc1 [Example 214] |
